{"source": "patent US20090098050A1", "about": "“CALCIUM BINDING PEPTIDES” (THE REGENTS OF THE UNVERSITY OF CALIFORNIA, priority 2005, published 2009)", "key": {"[1]": {"system": "Streptococcus mutans strain UA159", "format": "cell-based", "source_text": "In order to determine the suitability of DSS peptides to serve as targeting moieties to deliver therapeutic compounds to mineralized surfaces, peptides were synthesized containing an N-terminal (DSS)4, (DSS)5, or (DSS)6 peptide, a triglycine (GGG) linker, and a 2c-4 antimicrobial peptide (SEQ ID NO:26) (J. He, unpublished). The sequences of these fusion proteins are set forth in SEQ ID NOs:27-29, respectively. The antimicrobial activity of these peptides against anaerobic planktonic bacteria was determined by a modification of a previously described assay (Qi 2005). Briefly, Streptococcus mutans strain UA159 cells were diluted to ˜1×10^5 cfu/mL in Todd-Hewitt (TH) broth medium and mixed with either suspended hydroxyapatite nanocrystals (Berkeley Advanced Biomaterials, Inc., 0.03% w/v) or, for control samples, an equivalent volume of deionized water. Aliquots were transferred into 96-well plates (Fisher). Serial dilutions of the peptides were then made and added to the bacteria. […] Nonetheless, some antimicrobial activity is retained by this peptide."}, "[2]": {"test": "Binding of labeled 6DSS to sagitally sectioned human teeth (CLSM)", "procedure": "FIG. 1: Binding affinities of DSS and DSS variant peptides for hydroxyapatite and tooth surfaces. A-C. Fluorescein-labeled peptides at concentrations ranging from 0-100 μM were incubated with 0.3 mg of hydroxyapatite nanocrystals (specific surface area=100 m^2/g) for ten minutes, followed by removal of the hydroxyapatite by centrifugation. The amount of peptide in the mixture before and after hydroxyapatite removal was determined by Abs480. Isotherms were plotted and fit to the Langmuir equation to extract values for KA, a constant reflecting the affinity of the peptide for the hydroxyapatite surface. D. Sagitally sectioned human teeth were incubated with 12.5 μM 5(6) carboxyfluorescein-labeled 6DSS peptide for ten minutes, followed by rinsing. Peptide binding to tooth surfaces was visualized by Confocal Laser Scanning Microscopy (CLSM) using blue laser illumination (λA=488 nm) and a FITC emission filter. Left side, light colored region: dentin. Right side, dark colored region: enamel.\nControl samples were prepared without peptide. Samples were rinsed after treatment and imaged by confocal laser scanning microscopy (CLSM) using blue laser illumination (excitation wavelength (λ)=488 nm) and a FITC emission filter."}, "[3]": {"system": "mineralized mouse bone marrow nodules", "test": "Binding to mineralized mouse bone marrow nodules (fluorescence microscopy)", "format": "cell-based", "conditions": "2.5 μM 5(6)-carboxyfluorescein-labeled peptide, three weeks", "procedure": "FIG. 2: Binding of 6DSS peptide to mineralized mouse bone marrow nodules (MBMNs). Mouse bone marrow cultures were grown to confluence, then treated for three weeks with 2.5 μM scrambled control peptide or 2.5 μM 6DSS. Cultures were imaged by fluorescence microscopy using a FITC filter set. A. Brightfield image of mineralized MBMNs from a culture treated with 6DSS. B. Fluorescence image of the field shown in (A). […] C. Brightfield image of mineralized MBMNs from a culture treated with scrambled control peptide. D. Fluorescence image of the field shown in (C), illustrating both the lack of binding of the control peptide to the MBMN's and the lack of autofluorescence within the sample. Mouse bone marrow cultures were grown to confluence in DMEM+10% FBS, then treated continuously for three weeks with either 2.5 μM 5(6)-carboxyfluorescein-labeled 6DSS or 2.5 μM 5(6)-carboxyfluorescein-labeled peptide #3-1 (scrambled control peptide, SEQ. ID NO. 24) in aMEM+10% FBS with 50 μg/mL ascorbic acid 4 mM β-glycerophosphate. Cultures were imaged by fluorescence microscopy using a FITC excitation/emission filter set, and both brightfield and fluorescence images were obtained."}, "[4]": {"test": "Tissue specific binding of DSS peptides and variants in human teeth (CLSM)", "conditions": "12.5 μM labeled peptide", "procedure": "FIG. 8: Fluorescence micrographs showing tissue specificity in the binding of DSS peptides and variants. Adult human teeth were exposed to 12.5 μM 5(6)-carboxyfluorescein-labeled peptide without demineralization, washed extensively, and imaged by CLSM. For each section, multiple scans were collected and assembled in an automated mode to generate panels of images representing an area of 13×13 mm, sufficient in most cases to encompass the whole section. The peptides used for each section are labeled beneath each panel, and within each panel the tooth is oriented with the root toward the top of the image and the crown toward the bottom. Tissue layers are labeled as follows: RTD=Root Tip Dentin; CPD=Circumpulpal Dentin; MD=Mantle Dentin; P=Pulp Cavity Wall; DEJ=Dentin-Enamel Junction; E=Enamel; BE=Basal Enamel; CE=Cortical Enamel; CL=Carious Lesion; PB=Periodontal Bone.\nIn order to investigate the tissue specificity of DSS peptide binding to tooth tissue, sections of human teeth were exposed to DSS peptides and variants, then imaged by CLSM as described in Example 2. The peptides utilized for these experiments were 8DSS, 8ASS, 8DAA, 8NAA, 4DSS, 4ESS, 4NSS, 4DTT, 4ETT, 4NTT, and 6DSS. Sagittal sections of human teeth extracted during normal clinical practice were polished and then incubated for ten minutes in a solution of the appropriate 5(6) carboxyfluorescein-labeled peptide (12.5 μM) containing 10 mM NaCl and 50 mM HEPES, pH 7.0. Control samples were prepared without peptide. Samples were washed extensively after treatment and imaged by CLSM using blue laser illumination (λ=488 nm) and a FITC emission filter, with identical camera and microscope settings for each sample. For each section, multiple scans were collected and assembled in an automated mode to generate panels of images representing an area of 13×13 mm, sufficient in most cases to encompass the whole section. […] Significant binding was also seen to the edges of the pulp cavity."}, "[5]": {"test": "Preferential binding to carious lesions in teeth (CLSM)", "parameters": "species or system human", "conditions": "labeled peptide, settings optimized per sample", "procedure": "FIG. 9: Fluorescence micrographs showing specific binding of DSS peptides and variants to carious lesions in teeth. Adult human teeth were exposed to 12.5 uM 5(6)-carboxyfluorescein-labeled peptide without demineralization, washed extensively, and imaged by CLSM. Microscope and camera settings were optimized separately for each sample. […] White traces on the right side of each panel identify the position of the tooth surface, while arrows indicate the position of the stained lesion.\nSections of human teeth containing obvious carious lesions, which consist of demineralized enamel, were polished and exposed to 5(6)-carboxyfluorescein-labeled DSS peptides and variants using the protocol described in Example 2. The sections were washed extensively and imaged by CLSM using blue laser illumination (λ=488 nm) and a FITC emission filter, with microscope and camera settings adjusted for each sample to optimize the signal detected from each peptide. The images were examined to identify the relative levels of peptide binding in healthy versus carious tissue. […] Given their ability to remineralize at sites of enamel degradation (Example 6), they can also be used to initiate remineralization at sites of enamel degradation such as caries or injury sites without causing inappropriate nucleation on healthy tissue surfaces."}}, "note": "Read-outs that look alike come from different tables or passages of the source. No end group written: not given here.", "data": [{"substance": "DSSDSSDSSDSSGGGRWRWRWF [4DSS-2c4]", "values": [{"measurement": "MIC", "setting": "[1]; planktonic S. mutans, with 0.03% (w/v) hydroxyapatite, approximately 24 hours", "value": "unaffected"}, {"measurement": "MIC", "setting": "[1]; strain UA159, 24 h", "value": 52.5, "unit": "µM"}]}, {"substance": "6DSS: peptide containing six Asp-Ser-Ser (DSS) repeats, SEQ ID NO:14 (DSSDSSDSSDSSDSSDSS; calcium binding peptide containing six DSS repeats, 6DSS, (DSS)-6)", "values": [{"measurement": "Fluorescent staining of tooth surface", "setting": "[2]; 12.5 μM 5(6) carboxyfluorescein-labeled peptide, ten minutes", "value": "Intense fluorescent staining"}, {"measurement": "Location of peptide binding in tooth section", "setting": "[2]; 12.5 μM labeled peptide, dentin versus enamel", "value": "limited to the dentin"}, {"measurement": "Staining of mineralizing nodules", "setting": "[3]", "value": "Strong staining"}, {"measurement": "Tissue binding pattern in healthy tooth section", "setting": "[4]; nondemineralized teeth", "value": "bound primarily to the mantle dentin"}, {"measurement": "Level of binding (staining) to tooth surfaces", "setting": "[4]; ten minutes, identical settings", "value": "greatest levels of staining"}, {"measurement": "Specificity of binding to carious lesions versus surrounding healthy enamel", "setting": "[5]", "value": "highly specific binding to carious lesions"}, {"measurement": "Strength of staining of carious lesions", "setting": "[5]", "value": "exceptionally strong staining of carious lesions"}]}, {"substance": "RWRWRWF [2c-4, reference compound]", "values": [{"measurement": "MIC", "setting": "[1]; strain UA159, 24 h", "value": 2, "unit": "µM"}]}, {"substance": "peptide #3-1: scrambled control peptide, SEQ. ID NO. 24 (LIKHILHRL; scrambled control peptide #3-1) [reference compound]", "values": [{"measurement": "Staining of mineralizing nodules", "setting": "[3]", "value": "No staining"}]}, {"substance": "FHFHLHF [PL-135, reference compound]", "values": [{"measurement": "MIC", "setting": "[1]; strain UA159, 24 h", "value": 21, "unit": "µM"}]}, {"substance": "LKRFLKWFKRF [b-34, reference compound]", "values": [{"measurement": "MIC", "setting": "[1]; strain UA159, 24 h", "value": 5.6, "unit": "µM"}]}]}
